The test system of the assay is BDF1 mice, P388 leukemia ip, median survival T/C. Put plainly: NCI In Vivo Anticancer Drug Screen. Data for tumor model P388 Leukemia (intraperitoneal) in B6D2F1 (BDF1) mice. The note with it: endpoint: median survival time, higher = longer survival. Put shortly:
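Mice carrying the transplantable tumour receive compound or vehicle. Survival is followed in each arm, and the treated measure is divided by the vehicle measure.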

[1] abbreviates: dose: 100.0 mg/kg/injection, schedule: Q01DX009 (ip), vehicle: saline with Tween-80.
The mark [2] stands for this setting: dose: 200.0 mg/kg/injection, schedule: Q01DX009 (ip), vehicle: saline with Tween-80.
Where [3] appears, read: dose: 25.0 mg/kg/injection, schedule: Q01DX009 (ip), vehicle: saline with Tween-80.
Where [4] appears, read: dose: 50.0 mg/kg/injection, schedule: Q01DX009 (ip), vehicle: saline with Tween-80.
Setting [5] is: dose: 100.0 mg/kg/injection, schedule: Q04DX003 (ip), vehicle: Klucel (hydroxypropylcellulose) (HPC).

Structures are written as SMILES. Several values for one entry are separate records, joined by “and”; a condition that tells them apart may be missing. Identical values can stand only once. Toxic doses and inconclusive results are not listed.

As for `COc1cc(C=Nc2cc(Cl)c(Cl)c(Cl)c2)ccc1N(CCCl)CCCl`, the T/C was 150 % of control (dose: 1.8 mg/kg/injection, schedule: Q01DX009 (ip), vehicle: Klucel (hydroxypropylcellulose) (HPC)); 158 % of control (dose: 2.7 mg/kg/injection, schedule: Q01DX009 (ip), vehicle: Klucel (hydroxypropylcellulose) (HPC)); 195 % of control (dose: 3.12 mg/kg/injection, schedule: Q01DX009 (ip), vehicle: Klucel (hydroxypropylcellulose) (HPC)); 237 % of control and 163 % of control (dose: 4.1 mg/kg/injection, schedule: Q01DX009 (ip), vehicle: Klucel (hydroxypropylcellulose) (HPC)); 227 % of control and 240 % of control and 208 % of control (dose: 6.25 mg/kg/injection, schedule: Q01DX009 (ip), vehicle: Klucel (hydroxypropylcellulose) (HPC)); 254 % of control and 150 % of control (dose: 9.3 mg/kg/injection, schedule: Q01DX009 (ip), vehicle: Klucel (hydroxypropylcellulose) (HPC)). The T/C (dose: 12.5 mg/kg/injection, schedule: Q01DX009 (ip), vehicle: Klucel (hydroxypropylcellulose) (HPC)) is 204 % of control; the T/C (dose: 25.0 mg/kg/injection, schedule: Q01DX009 (ip), vehicle: Klucel (hydroxypropylcellulose) (HPC)) is 120 % of control; the T/C (dose: 30.0 mg/kg/injection, schedule: Q04DX003 (ip), vehicle: Klucel (hydroxypropylcellulose) (HPC)) is 186 % of control; the T/C (dose: 45.0 mg/kg/injection, schedule: Q04DX003 (ip), vehicle: Klucel (hydroxypropylcellulose) (HPC)) was 272 % of control.
For the molecule `O=C(O)C1C2CCCCC21` (centres undefined), the T/C is 109 % of control under setting [1]; 113 % of control (dose: 100.0 mg/kg/injection, schedule: Q01DX009 (ip), vehicle: saline); 100 % of control under setting [2]; 109 % of control (dose: 200.0 mg/kg/injection, schedule: Q01DX009 (ip), vehicle: saline); 95 % of control (dose: 400.0 mg/kg/injection, schedule: Q01DX009 (ip), vehicle: saline with Tween-80); 104 % of control (dose: 400.0 mg/kg/injection, schedule: Q01DX009 (ip), vehicle: saline).
Turning to `O=[N+]([O-])c1ccc(/C=N\Nc2ccc([N+](=O)[O-])cn2)cc1`, the T/C was 110 % of control (dose: 12.5 mg/kg/injection, schedule: Q01DX009 (ip), vehicle: saline with Tween-80); 120 % of control under setting [3]; 120 % of control under setting [4]; 90 % of control under setting [1]; 100 % of control (dose: 100.0 mg/kg/injection, schedule: Q04DX003 (ip), vehicle: saline sonified); 90 % of control under setting [2]. For the same molecule, the T/C is, setting by setting: (dose: 200.0 mg/kg/injection, schedule: Q04DX003 (ip), vehicle: saline sonified) 110 % of control; (dose: 400.0 mg/kg/injection, schedule: Q04DX003 (ip), vehicle: saline sonified) 120 % of control.
As for `CNC(=S)N/N=C\C(=N/NC(=S)NC)c1ccco1`, the T/C by setting is: (dose: 15.0 mg/kg/injection, schedule: Q01DX009 (ip), vehicle: saline with Tween-80) 100 % of control; (dose: 30.0 mg/kg/injection, schedule: Q01DX009 (ip), vehicle: saline with Tween-80) 98 % of control.
For `CCOC(=O)/C=C(\C)Nc1cccc([N+](=O)[O-])c1`, the T/C reads like this: (dose: 25.0 mg/kg/injection, schedule: Q01DX009 (ip), vehicle: other) 110 % of control; (dose: 50.0 mg/kg/injection, schedule: Q01DX009 (ip), vehicle: other) 93 % of control; (dose: 100.0 mg/kg/injection, schedule: Q01DX009 (ip), vehicle: other) 100 % of control; (dose: 200.0 mg/kg/injection, schedule: Q01DX009 (ip), vehicle: other) 110 % of control; (dose: 400.0 mg/kg/injection, schedule: Q01DX009 (ip), vehicle: other) 116 % of control.
For `Nc1ccccc1C(=O)OCCc1ccccc1`, the T/C was 100 % of control (dose: 100.0 mg/kg/injection, schedule: Q01DX009 (ip), vehicle: Klucel (hydroxypropylcellulose) (HPC)); 95 % of control under setting [5]; 91 % of control (dose: 200.0 mg/kg/injection, schedule: Q04DX003 (ip), vehicle: Klucel (hydroxypropylcellulose) (HPC)); 94 % of control (dose: 266.0 mg/kg/injection, schedule: Q01DX009 (ip), vehicle: Klucel (hydroxypropylcellulose) (HPC)); 110 % of control (dose: 400.0 mg/kg/injection, schedule: Q01DX009 (ip), vehicle: Klucel (hydroxypropylcellulose) (HPC)); 95 % of control (dose: 400.0 mg/kg/injection, schedule: Q04DX003 (ip), vehicle: Klucel (hydroxypropylcellulose) (HPC)). Also, the T/C (dose: 600.0 mg/kg/injection, schedule: Q01DX009 (ip), vehicle: Klucel (hydroxypropylcellulose) (HPC)) was 100 % of control.
As for `O=C1C=C(SCCO)C(=O)c2ccccc21`, the T/C is 100 % of control (dose: 0.37 mg/kg/injection, schedule: Q04DX003 (ip), vehicle: saline); 104 % of control (dose: 0.75 mg/kg/injection, schedule: Q04DX003 (ip), vehicle: saline); 109 % of control (dose: 1.5 mg/kg/injection, schedule: Q04DX003 (ip), vehicle: saline).
Turning to `O=C(NC(=O)c1c(F)cccc1F)Nc1nc(-c2ccccc2)cs1`, the T/C was 93 % of control under setting [3], 100 % of control under setting [4] and 90 % of control under setting [1].
For `CN(C)c1cc2nc[nH]c(=O)c2cc1[N+](=O)[O-]`, the T/C under setting [5] was 116 % of control.
`NNc1ncnc2c1ccn2C1OC(CO)C(O)C1O` (centres undefined): the T/C reads like this: under setting [3], 150 % of control; (dose: 25.0 mg/kg/injection, schedule: Q04DX003 (ip), vehicle: saline with Tween-80) 104 % of control; (dose: 37.5 mg/kg/injection, schedule: Q01DX009 (ip), vehicle: saline with Tween-80) 155 % of control; under setting [4], 100 % of control; (dose: 50.0 mg/kg/injection, schedule: Q04DX003 (ip), vehicle: saline with Tween-80) 108 % of control; (dose: 100.0 mg/kg/injection, schedule: Q04DX003 (ip), vehicle: saline with Tween-80) 108 % of control.
`S=C(Nc1ccccc1)NC1CCCCCC1`: the T/C (dose: 75.0 mg/kg/injection, schedule: Q04DX003 (ip), vehicle: Klucel (hydroxypropylcellulose) (HPC)) was 90 % of control; the T/C (dose: 150.0 mg/kg/injection, schedule: Q04DX003 (ip), vehicle: Klucel (hydroxypropylcellulose) (HPC)) is 100 % of control; the T/C (dose: 300.0 mg/kg/injection, schedule: Q04DX003 (ip), vehicle: Klucel (hydroxypropylcellulose) (HPC)) was 110 % of control.
`N=C(N)c1ccc(N=C(N)Nc2ccc(C(=N)N)cc2)cc1`: for the setting “dose: 50.0 mg/kg/injection, schedule: Q01DX009 (ip), vehicle: saline”, the T/C was 118 % of control.
For the molecule `CC1NC(=O)C2Cc3ccc(O)c(c3)Oc3ccc(cc3)C(O)C(C(=O)N2C)N(C)C(=O)C(C)NC(=O)C(Cc2ccc(O)cc2)N(C)C(=O)C(C)NC1=O` (centres undefined), the T/C was 98 % of control (dose: 1.0 mg/kg/injection, schedule: Q01DX009 (ip), vehicle: saline with Tween-80); 94 % of control (dose: 2.0 mg/kg/injection, schedule: Q01DX009 (ip), vehicle: saline with Tween-80); 107 % of control (dose: 4.0 mg/kg/injection, schedule: Q01DX009 (ip), vehicle: saline with Tween-80); 110 % of control (dose: 8.0 mg/kg/injection, schedule: Q01DX009 (ip), vehicle: saline with Tween-80); 101 % of control (dose: 16.0 mg/kg/injection, schedule: Q01DX009 (ip), vehicle: saline with Tween-80).
Consider `CC(=O)OCC12CCC(C)=CC1O[C@H]1[C@@H](OC(C)=O)[C@H](OC(C)=O)[C@]2(C)[C@@]12CO2` (some centres undefined), for which the T/C (dose: 2.5 mg/kg/injection, schedule: Q04DX002 (ip), vehicle: saline + alcohol) is 96 % of control.
Regarding `O=C(O)c1cc(O)c(Br)c(O)c1`, the T/C by setting is: (dose: 100.0 mg/kg/injection, schedule: Q01DX001 (ip), vehicle: saline with Tween-80) 109 % of control; (dose: 200.0 mg/kg/injection, schedule: Q01DX001 (ip), vehicle: saline with Tween-80) 100 % of control; (dose: 400.0 mg/kg/injection, schedule: Q01DX001 (ip), vehicle: saline with Tween-80) 104 % of control.

Source of the values: PubChem BioAssay AID328 (DTP/NCI, 2004).
